# Experiments:
# [1] = system: vancomycin susceptible receptor (VSR); conditions: previous measurements (known cantilever); cited from earlier work
# [2] = system: vancomycin susceptible receptor (VSR); test: Differential cantilever bending / surface stress of unpassivated VSR-functionalized cantilevers against Van; assay type: binding
# Experimental: Detection of cantilever bending response in case of optical readout is performed, for example, by using serial time multiplexed optical beam method with a single position sensitive detector, although other readouts such as electronic or diffraction can be used. The laser spot (about 100 μm diameter) is aligned onto the free end of each sensor where the accuracy of alignment is confirmed by heating test. The expected precision of laser spot alignment is determined by calculating the bending variation at the maximum bending signals between individual cantilever sensors. Well aligned cantilevers at the maximum bending signals should yield a relative standard deviation of the bending signals of about ≤10%, preferably about ≤5%, between them. Correlating the response signal to the presence or absence of the molecule to be detected includes a first step of calculating the net change in stress, using the mathematical model reported above, and then a second step of associating the net change in stress value to the presence of absence of the molecule and, in case of presence, to the concentration level of the molecule.
# Case I: Simultaneous functionalization of Au(top) and Si(bottom) surfaces of cantilever arrays: To systematically alter both Au(top) and Si(bottom) surfaces into chemically active sensing layers, the arrays of eight rectangular cantilevers were subjected to surface capture molecules in micro-capillary glass tubes (King Precision Glass, Claremont, Calif., USA), arranged according to the cantilever pitch size of 250 μm. The alkanethiols of self-assembled monolayers (SAMs), namely vancomycin susceptible receptor (VSR˜0.6 kDa) analogues to bacterial cell wall precursors that present uncrosslinked peptide motifs terminating in the sequence lysine-D-alanine-D-alanine and ‘inert’ SAM molecule terminating in triethylene glycol (PEG) whose detailed structural sequences have been described previously were diluted in ethanol solution to yield total concentrations of: 0.1 μM, 1 μM, 10 μM, 50 μM, 100 μM, 1000 μM, 2000 μM, 3000 μM and 4000 μM. Individual VSR and PEG concentrations were injected into micro-capillary glass tubes and cantilevers were then incubated inside the capillaries for 20 min, washed three times with ethanol and stored in distilled water until usage. The functionalization procedure was carried out without pre-adsorbing resistive protein monolayer bovine serum albumin (BSA) or PEG-silane, known for blocking nonspecific interactions.
# To tune the receptor footprint (area per each receptor molecule) for enhanced biodetectability and to achieve satisfactory quantitative drug-target measurements, certain steps within the functionalization protocol were addressed. The first task was to define the percentage ratio of VSR by incorporating a receptor molecule with second SAM-forming molecule PEG. The ratio of VSR and PEG molecules dissolved in ethanol was varied to yield a total concentration in the solution of 1 μM, for which full surface coverage was established. The corresponding mixed ethanolic thiol solutions of VSR and ‘inert’ PEG mixed in the ratio of 30%, 70%, 90%, and 100% were used to coat cantilever arrays.
# FIG. 1a-b show the functionalization of both surfaces of the cantilever with a self-assembled monolayer (SAM) of vancomycin (Van) susceptible receptor (VSR ˜0.6 kDa) analogues of the bacterial cell wall precursors that present uncrosslinked peptide motifs terminating in the sequence lysine-D-alanine-D-alanine. To eliminate the artifacts that produce non-specific signals differential measurements were performed in which reference polyethylene glycol(PEG)-coated cantilever bending signals were subtracted from the receptor signals.
# This functionalization was performed without pre-adsorbing a resistive protein monolayer of bovine serum albumin (BSA) or PEG-silane, which are known to block non-specific interactions. […]
smiles,measurement,setting,value
"CN[C@H](CC(C)C)C(=O)N[C@H]1C(=O)N[C@@H](CC(N)=O)C(=O)N[C@H]2C(=O)N[C@H]3C(=O)N[C@H](C(=O)N[C@H](C(=O)O)c4cc(O)cc(O)c4-c4cc3ccc4O)[C@H](O)c3ccc(c(Cl)c3)Oc3cc2cc(c3O[C@@H]2O[C@H](CO)[C@@H](O)[C@H](O)[C@H]2O[C@H]2C[C@](C)(N)[C@H](O)[C@H](C)O2)Oc2ccc(cc2Cl)[C@H]1O [Van, vancomycin]","Net stress, previous measurements",[1],33 mN m^−1
same,Compressive stress (differential surface stress),"[2]; Van 250 μM, VSR 50 μM in functionalizing solution, unpassivated cantilever",52 mN m^−1
same,Stress signal σmax,"[2]; Van 250 μM, VSR concentration beyond 50 μM (regime II)",≈ 5 mN m^−1
same,Cantilever stress,"[2]; Van 250 μM, VSR/PEG 100% receptor, total concentration 1 μM",highest stress
same,Cantilever deflection signal,"[2]; Van 250 μM, VSR/PEG ~30% receptor, total concentration 1 μM",negligible
same,Differential stress / bending response on reference PEG-coated cantilevers,"[2]; Van 250 μM, reference PEG-coated cantilevers",no bending response and zero
same,Mechanical response on uncoated Au and Si surfaces,"[2]; in the presence of Van, uncoated Au and Si surfaces as control",undetectable
